Reference: patent US12501900B2, “Heterocyclyl pyridazine as fungicidal compounds” (Bayer Aktiengesellschaft, priority 2018, dated 2025)

Assays:
Botrytis cinerea = assay: In vivo preventive test on Botrytis cinerea (grey mould); conditions: 500 ppm of active ingredient, preventive spray on gherkin or cabbage, evaluated 4 to 5 days after inoculation, read-out: efficacy
Protocol: Example: In Vivo Preventive Test on Botrytis cinerea (Grey Mould)
(§1) • Solvent: 5% by volume of Dimethyl sulfoxide • 10% by volume of Acetone • Emulsifier: 1 μl of Tween® 80 per mg of active ingredient
(§2) The active ingredients were made soluble and homogenized in a mixture of Dimethyl sulfoxide/Acetone//Tween®80 and then diluted in water to the desired concentration.
The young plants of gherkin or cabbage were treated by spraying the active ingredient prepared as described above. Control plants were treated only with an aqueous solution of Acetone/Dimethyl sulfoxide/Tween® 80.
After 24 hours, the plants were contaminated by spraying the leaves with an aqueous suspension of Botrytis cinerea spores. The contaminated gherkin plants were incubated for 4 to 5 days at 17° C. and at 90% relative humidity. The contaminated cabbage plants were incubated for 4 to 5 days at 20° C. and at 100% relative humidity.
The test was evaluated 4 to 5 days after the inoculation. 0% means an efficacy which corresponds to that of the control plants while an efficacy of 100% means that no disease was observed.

Alternaria alternata = Alternaria alternata in vitro cell test; format: cell-based; conditions: 120 h, 20 ppm of active ingredient, liquid culture, 5 days incubation, read-out: efficacy (inhibition of fungal growth)
Protocol: (§3) Example: Alternaria alternata In Vitro Cell Test • Solvent: DMSO • Culture medium: 14.6 g anhydrous D-glucose (VWR), 7.1 g Mycological Peptone (Oxoid), 1.4 g granulated Yeast Extract (Merck), QSP 1 liter • Inoculum: spores suspension Fungicides were solubilized in DMSO and the solution used to prepare the required range of concentrations. The final concentration of DMSO used in the assay was ≤1%. A spore suspension of A. alternata was prepared and diluted to the desired spore density. Fungicides were evaluated for their ability to inhibit spore germination and mycelium growth in liquid culture assay. The compounds were added in the desired concentration to the culture medium with spores. After 5 days incubation, fungi-toxicity of compounds was determined by spectrometric measurement of mycelium growth. Inhibition of fungal growth was determined by comparing the absorbance values in wells containing the fungicides with the absorbance in control wells without fungicides.

[1] = Measurement of LogP values by HPLC on reversed phase columns (EEC directive 79/831 Annex V.A8), methods [a], [b], [c]; format: physicochemical; conditions: HPLC on reversed phase column, method [a]; read-out: Log P
Protocol: Measurement of Log P values as provided herein was performed according to EEC directive 79/831 Annex V.A8 by HPLC (High Performance Liquid Chromatography) on reversed phase columns with the following methods: • ^[a]
If more than one Log P value is available within the same method, all the values are given and separated by “+”.
Lambda-max-values were determined using UV-spectra from 200 nm to 400 nm and the peak values of the chromatographic signals

[2] = tested on: Colletotrichum lindemuthianum; assay: In vivo preventive test on Colletotrichum lindemuthianum (leaf spot on bean); conditions: 168 h, 500 ppm of active ingredient, preventive spray on bean, evaluated 7 days after inoculation, read-out: efficacy
Protocol: Example: In Vivo Preventive Test on Colletotrichum lindemuthianum (Leaf Spot on Bean)
as §1, §2
The young plants of bean were treated by spraying the active ingredient prepared as described above. Control plants were treated only with an aqueous solution of Acetone/Dimethyl sulfoxide/Tween® 80.
After 24 hours, the plants were contaminated by spraying the leaves with an aqueous suspension of Colletotrichum lindemuthianum spores. The contaminated bean plants were incubated for 24 hours at 20° C. and at 100% relative humidity and then for 6 days at 20° C. and at 90% relative humidity.
The test was evaluated 7 days after the inoculation. 0% means an efficacy which corresponds to that of the control plants while an efficacy of 100% means that no disease was observed.

[3] = tested on: Colletotrichum lindemuthianum; assay: Colletotrichum lindemuthianum in vitro cell test; format: cell-based; conditions: 144 h, 20 ppm of active ingredient, liquid culture, 6 days incubation, read-out: efficacy (inhibition of fungal growth)
Protocol: as §3, with “Example: Colletotrichum lindemuthianum” for “Example: Alternaria alternata”, “of C. lindemuthianum” for “of A. alternata”, “inhibit spores” for “inhibit spore”, “After 6” for “After 5”

Alternaria brassicae = assay: In vivo preventive test on Alternaria brassicae (leaf spot on radish or cabbage); conditions: 144 h, 500 ppm of active ingredient, preventive spray on radish or cabbage, evaluated 6 days after inoculation, read-out: efficacy
Protocol: Example: In Vivo Preventive Test on Alternaria brassicae (Leaf Spot on Radish or Cabbage)
as §1, §2
The young plants of radish or cabbage were treated by spraying the active ingredient prepared as described above. Control plants were treated only with an aqueous solution of Acetone/Dimethyl sulfoxide/Tween® 80.
After 24 hours, the plants were contaminated by spraying the leaves with an aqueous suspension of Alternaria brassicae spores. The contaminated radish or cabbage plants were incubated for 6 days at 20° C. and at 100% relative humidity.
The test was evaluated 6 days after the inoculation. 0% means an efficacy which corresponds to that of the control plants while an efficacy of 100% means that no disease was observed.

Pyrenophora teres = assay: In vivo preventive test on Pyrenophora teres (net blotch on barley); conditions: 240 h, 500 ppm of active ingredient, preventive spray on barley, evaluated 10 days after inoculation, read-out: efficacy
Protocol: Example: In Vivo Preventive Test on Pyrenophora teres (Net Blotch on Barley)
as §1, §2
The young plants of barley were treated by spraying the active ingredient prepared as described above. Control plants were treated only with an aqueous solution of Acetone/Dimethyl sulfoxide/Tween®80.
After 24 hours, the plants were contaminated by spraying the leaves with an aqueous suspension of Pyrenophora teres spores. The contaminated barley plants were incubated for 48 hours at 20° C. and at 100% relative humidity and then for 8 days at 20° C. and at 70-80% relative humidity.
The test was evaluated 10 days after the inoculation. 0% means an efficacy which corresponds to that of the control plants while an efficacy of 100% means that no disease was observed.

Sphaerotheca fuliginea = assay: In vivo preventive test on Sphaerotheca fuliginea (powdery mildew on cucurbits); conditions: Podosphaera fuliginea, 192 h; 500 ppm of active ingredient; preventive spray on gherkin; evaluated 8 days after inoculation; read-out: efficacy
Protocol: Example: In Vivo Preventive Test on Sphaerotheca fuliginea (Powdery Mildew on Cucurbits)
as §1, §2
The young plants of gherkin were treated by spraying the active ingredient prepared as described above. Control plants were treated only with an aqueous solution of Acetone/Dimethyl sulfoxide/Tween® 80.
After 24 hours, the plants were contaminated by spraying the leaves with an aqueous suspension of Sphaerotheca fuliginea spores. The contaminated gherkin plants were incubated for 8 days at 20° C. and at 70-80% relative humidity.
The test was evaluated 8 days after the inoculation. 0% means an efficacy which corresponds to that of the control plants while an efficacy of 100% means that no disease was observed.

Q: What does the source list for `Cc1ccc(CC2CCN=C(c3cc(Cl)nnc3Oc3cccc(C(F)(F)F)c3)N2)c(C)c1` (racemic) [I-117, 6-chloro-4-[rac-6-[(2,4-dimethylphenyl)methyl]-1,4,5,6-tetrahydropyrimidin-2-yl]-3-[3-(trifluoromethyl)phenoxy]pyridazine]?
A: pest or weed control at 500 ppm (Botrytis cinerea): 90 to 100%; inhibition at 20 ppm (Alternaria alternata): 90 to 100%; chromatographic logP [1]: 2.56; pest or weed control at 500 ppm [2]: 90 to 100%; inhibition at 20 ppm [3]: 90 to 100%; pest or weed control at 500 ppm (Alternaria brassicae): 90 to 100%

Q: With `Cc1ccc(CC2CON=C(c3c(Oc4cccc(C5CC5)c4F)nnc(Cl)c3C)N2)c(C)c1` (racemic) [I-058, rac-3-[6-chloro-3-(3-cyclopropyl-2-fluoro-phenoxy)-5-methyl-pyridazin-4-yl]-5-[(2,4-dimethylphenyl)methyl]-5,6-dihydro-4H-1,2,4-oxadiazine] as the compound, how does the pest or weed control at 500 ppm (Pyrenophora teres) read?
A: 80 to 89%

Q: What about the pest or weed control at 500 ppm (Botrytis cinerea) of the same compound?
A: 90 to 100%

Q: What about the pest or weed control at 500 ppm (Sphaerotheca fuliginea) of the same compound?
A: 90 to 100%

Q: What about the inhibition at 20 ppm (Alternaria alternata) of the same compound?
A: 90 to 100%

Q: And the chromatographic logP [1]?
A: 4.3

Q: And the pest or weed control at 500 ppm [2]?
A: 90 to 100%

Q: What about the inhibition at 20 ppm [3] of the same compound?
A: 90 to 100%

Q: And the pest or weed control at 500 ppm (Alternaria brassicae)?
A: 90 to 100%

Q: Which results are given for `Cc1ccc(CC2CNN=C(c3cc(Cl)nnc3Oc3cccc(C(F)(F)F)c3)N2)c(C)c1` (racemic) [I-173, rac-3-[6-chloro-3-[3-(trifluoromethyl)phenoxy]pyridazin-4-yl]-5-[(2,4-dimethylphenyl)methyl]-1,4,5,6-tetrahydro-1,2,4-triazine]?
A: pest or weed control at 500 ppm (Pyrenophora teres): 90 to 100%; pest or weed control at 500 ppm (Botrytis cinerea): 90 to 100%; pest or weed control at 500 ppm (Sphaerotheca fuliginea): 90 to 100%; inhibition at 20 ppm (Alternaria alternata): 90 to 100%; chromatographic logP [1]: 3.31; pest or weed control at 500 ppm [2]: 90 to 100%; inhibition at 20 ppm [3]: 90 to 100%; pest or weed control at 500 ppm (Alternaria brassicae): 90 to 100%

Q: For `Cc1ccc(CC2CON=C(c3c(Oc4cccc(C(F)(F)F)c4)nnc(Cl)c3I)N2)c(C)c1` (racemic) [I-065, rac-3-[6-chloro-5-iodo-3-[3-(trifluoromethyl)phenoxy]pyridazin-4-yl]-5-[(2,4-dimethylphenyl)methyl]-5,6-dihydro-4H-1,2,4-oxadiazine], which pest or weed control at 500 ppm (Pyrenophora teres) is on record?
A: 70 to 79%

Q: And the inhibition at 20 ppm (Alternaria alternata)?
A: 90 to 100%

Q: And the chromatographic logP [1]?
A: 4.37

Q: What about the pest or weed control at 500 ppm [2] of the same compound?
A: 90 to 100%

Q: And the inhibition at 20 ppm [3]?
A: 90 to 100%

Q: And the pest or weed control at 500 ppm (Alternaria brassicae)?
A: 90 to 100%

Q: Which results are given for `Cc1cc(C2=NOCCC(c3ccc4c(ccn4C)c3)N2)c(Oc2cccc(C(F)(F)F)c2)nn1` (racemic) [I-062, rac-5-(1-methylindol-5-yl)-3-[6-methyl-3-[3-(trifluoro-methyl)phenoxy]pyridazin-4-yl]-4,5,6,7-tetrahydro-1,2,4-oxadiazepine]?
A: pest or weed control at 500 ppm (Botrytis cinerea): 90 to 100%; pest or weed control at 500 ppm (Sphaerotheca fuliginea): 90 to 100%; chromatographic logP [1]: 1.92; pest or weed control at 500 ppm [2]: 90 to 100%; pest or weed control at 500 ppm (Alternaria brassicae): 90 to 100%

Q: For `Cc1cc(C2=NOCC(c3ccc(Cl)cc3)N2)c(Oc2cccc(C(F)(F)F)c2)nn1` (racemic) [I-040, rac-5-(4-chlorophenyl)-3-[6-methyl-3-[3-(trifluoro-methyl)phenoxy]pyridazin-4-yl]-5,6-dihydro-4H-1,2,4-oxadiazine], which pest or weed control at 500 ppm (Pyrenophora teres) is on record?
A: 80 to 89%

Q: What about the pest or weed control at 500 ppm (Botrytis cinerea) of the same compound?
A: 90 to 100%

Q: And the pest or weed control at 500 ppm (Sphaerotheca fuliginea)?
A: 80 to 89%

Q: What about the inhibition at 20 ppm (Alternaria alternata) of the same compound?
A: 90 to 100%

Q: And the chromatographic logP [1]?
A: 3.29

Q: And the pest or weed control at 500 ppm [2]?
A: 90 to 100%

Q: And the inhibition at 20 ppm [3]?
A: 90 to 100%

Q: What about the pest or weed control at 500 ppm (Alternaria brassicae) of the same compound?
A: 90 to 100%

Q: For `Cc1ccc(CC2CON=C(c3c(Oc4cccc(C(F)(F)F)c4)nnc(Cl)c3NC3CC3)N2)c(C)c1` (racemic) [I-041, 3-chloro-N-cyclopropyl-5-[rac-5-[(2,4-dimethylphenyl)methyl]-5,6-dihydro-4H-1,2,4-oxadiazin-3-yl]-6-[3-(trifluoromethyl)phenoxy]pyridazin-4-amine], which pest or weed control at 500 ppm (Botrytis cinerea) is on record?
A: 90 to 100%

Q: What about the pest or weed control at 500 ppm (Sphaerotheca fuliginea) of the same compound?
A: 90 to 100%

Q: And the inhibition at 20 ppm (Alternaria alternata)?
A: 90 to 100%

Q: And the chromatographic logP [1]?
A: 4.03

Q: And the inhibition at 20 ppm [3]?
A: 90 to 100%

Q: What about the pest or weed control at 500 ppm (Alternaria brassicae) of the same compound?
A: 90 to 100%

Q: What does the source list for `Cc1ccc(OCC2CON=C(c3cc(C)nnc3Oc3cccc(C(F)(F)F)c3)N2)c(C)c1` (racemic) [I-144, rac-5-[(2,4-dimethylphenoxy)methyl]-3-[6-methyl-3-[3-(trifluoromethyl)phenoxy]pyridazin-4-yl]-5,6-dihydro-4H-1,2,4-oxadiazine]?
A: pest or weed control at 500 ppm (Botrytis cinerea): 90 to 100%; pest or weed control at 500 ppm (Sphaerotheca fuliginea): 70 to 79%; inhibition at 20 ppm (Alternaria alternata): 90 to 100%; chromatographic logP [1]: 3.98; inhibition at 20 ppm [3]: 90 to 100%; pest or weed control at 500 ppm (Alternaria brassicae): 90 to 100%

Q: For `COCCSc1nnc(Oc2cccc(C(F)(F)F)c2)c(C2=NOCC(Cc3ccc(C)cc3C)N2)c1C` (racemic) [I-187, rac-5-[(2,4-dimethylphenyl)methyl]-3-[6-(2-methoxyethylsulfanyl)-5-methyl-3-[3-(trifluoromethyl)phenoxy]pyridazin-4-yl]-5,6-dihydro-4H-1,2,4-oxadiazine], which pest or weed control at 500 ppm (Botrytis cinerea) is on record?
A: 90 to 100%

Q: What about the pest or weed control at 500 ppm (Sphaerotheca fuliginea) of the same compound?
A: 90 to 100%

Q: What about the inhibition at 20 ppm (Alternaria alternata) of the same compound?
A: 90 to 100%

Q: What about the chromatographic logP [1] of the same compound?
A: 4.51

Q: And the inhibition at 20 ppm [3]?
A: 90 to 100%

Q: And the pest or weed control at 500 ppm (Alternaria brassicae)?
A: 90 to 100%

Q: With `Cc1ccc(CC2CC(=O)N=C(c3cc(Cl)nnc3Oc3cccc(C4CC4)c3)N2)c(C)c1` (racemic) [I-078, rac-2-[6-chloro-3-(3-cyclopropylphenoxy)pyridazin-4-yl]-6-[(2,4-dimethylphenyl)methyl]-5,6-dihydro-1H-pyrimidin-4-one] as the compound, how does the pest or weed control at 500 ppm (Pyrenophora teres) read?
A: 80 to 89%

Q: What about the pest or weed control at 500 ppm (Botrytis cinerea) of the same compound?
A: 90 to 100%

Q: What about the pest or weed control at 500 ppm (Sphaerotheca fuliginea) of the same compound?
A: 80 to 89%

Q: And the inhibition at 20 ppm (Alternaria alternata)?
A: 90 to 100%

Q: What about the chromatographic logP [1] of the same compound?
A: 4.31

Q: And the pest or weed control at 500 ppm [2]?
A: 90 to 100%

Q: What about the inhibition at 20 ppm [3] of the same compound?
A: 90 to 100%

Q: What about the pest or weed control at 500 ppm (Alternaria brassicae) of the same compound?
A: 90 to 100%
